Structures are written as SMILES. Converted amounts (≈) assume the structure as drawn. The source made the active and inactive calls. The rule behind the calls is not given here.

Series [1] is described as follows: Solubility of compound in PBS at pH 6.0 incubated for 2 hrs by HPLC analysis. Format: physicochemical.
In another series the target is CDK2/Cyclin A2 (Homo sapiens, UniProt P24941). Nature of the series: Inhibition of CDK2/Cyclin A2 (unknown origin) preincubated for 10 mins followed by substrate/ATP measured after 60 mins by ADP-Glo assay. Format: protein-complex assay.
Another series has as its target CDK9/cyclin T1 (Homo sapiens, UniProt P50750). Put plainly: Inhibition of CDK9/cyclin T1 (unknown origin) preincubated for 10 mins followed by substrate/ATP measured after 60 mins by ADP-Glo assay. Format: protein-complex assay.
Series [2] has as its system NCI-H1975. Nature of the series: Anti-proliferative activity against human NCI-H1975 cells assessed as cell inhibition measured after 72 hrs by MTT assay. Format: functional, cell-based. The settings on record: NCI-H1975, 72 h.
The nature of series [3]: Anti-proliferative activity against human Osimertinib-resistant HCC827 cells assessed as cell inhibition measured after 72 hrs by MTT assay. Type of series: functional, cell-based.
The test system of series [4] is Osimertinib-resistant NCI-H1975 cell. Nature of the series: Anti-proliferative activity against human Osimertinib-resistant NCI-H1975 cells assessed as cell inhibition measured after 72 hrs by MTT assay. Type of series: functional, cell-based.
Series [5] can be described thus: Metabolic stability in rat liver microsomes assessed as half life measured for 5 to 60 mins by LC-MS/MS analysis. Type of series: ADME, Microsome. The settings on record: time 5-60 min.
A short description of series [6]: Metabolic stability in human liver microsomes assessed as half life measured for 5 to 60 mins by LC-MS/MS analysis. Format: ADME, Microsome. To be noted: time 5-60 min.
The test system of series [7] is NCI-H1975. Put plainly: Antitumor activity against human NCI-H1975 cells xenografted in BALB-c nude mouse assessed as tumor growth inhibition at 30 mg/kg, ip. Format: functional, organism-based.
Series [8] in a line: Toxicity in BALB-c mouse xenografted with human NCI-H1975 cells assessed as decrease in body weight at 30 mg/kg, ip. Format: organism-based. The settings on record: in vivo.
A further series has as its system HCC827. Nature of the series: Anti-proliferative activity against human HCC827 cells assessed as cell inhibition measured after 72 hrs by MTT assay. Type of series: functional, cell-based. The settings on record: HCC827, 72 h.
Series [9] deals with Osimertinib-resistant HCC827 cell. Put plainly: Antitumor activity against human Osimertinib-resistant HCC827 cells xenografted in BALB-c nude mouse assessed as tumor growth inhibition at 30 mg/kg, ip. Type of series: functional, organism-based.
Series [10] can be described thus: Toxicity in BALB-c mouse xenografted with human Osimertinib-resistant HCC827 cells assessed as decrease in body weight at 30 mg/kg, ip. Format: organism-based. The settings on record: in vivo.
In series [11] the test system is Osimertinib-resistant NCI-H1975 cell. Nature of the series: Induction of apoptosis in human Osimertinib-resistant NCI-H1975 cells assessed as viable cells at 0.5 uM incubated for 16 hrs by Annexin V-FITC/PI staining based flow cytometry (reference value: 89.4 %). Type of series: functional. To be noted: read-out: Activity.
Series [12] shares this test system. Put plainly: Induction of apoptosis in human Osimertinib-resistant NCI-H1975 cells assessed as necrotic cells at 0.5 uM incubated for 16 hrs by Annexin V-FITC/PI staining based flow cytometry (reference value: 0.33 %). Format: functional.
For series [13] the test system is unchanged. Nature of the series: Induction of apoptosis in human Osimertinib-resistant NCI-H1975 cells assessed as late apoptotic cells at 0.5 uM incubated for 16 hrs by Annexin V-FITC/PI staining based flow cytometry (reference value: 5.92 %). Type of series: functional.
Series [14] shares this test system. Nature of the series: Induction of apoptosis in human Osimertinib-resistant NCI-H1975 cells assessed as early apoptotic cells at 0.5 uM incubated for 16 hrs by Annexin V-FITC/PI staining based flow cytometry (reference value: 4.39 %). Format: functional.
The next series deals with NCI-H596. Nature of the series: Anti-proliferative activity against human NCI-H596 cells assessed as cell inhibition measured after 72 hrs by MTT assay. Format: functional, cell-based. To be noted: NCI-H596, 72 h.
Another series relates to PC-9. Put plainly: Anti-proliferative activity against human PC-9 cells assessed as cell inhibition measured after 72 hrs by MTT assay. Format: functional, cell-based. To be noted: PC-9, 72 h.
In the next series the test system is 16HBE14o-. Put plainly: Anti-proliferative activity against human 16-HBE cells assessed as cell inhibition measured after 72 hrs by MTT assay. Format: functional, cell-based.
The subject of a further series is NCI-H1299. Nature of the series: Anti-proliferative activity against human NCI-H1299 cells assessed as cell inhibition measured after 72 hrs by MTT assay. Format: functional, cell-based. The settings on record: NCI-H1299, 72 h.

CDK9/cyclin T1, sequence (O60563 whole entry): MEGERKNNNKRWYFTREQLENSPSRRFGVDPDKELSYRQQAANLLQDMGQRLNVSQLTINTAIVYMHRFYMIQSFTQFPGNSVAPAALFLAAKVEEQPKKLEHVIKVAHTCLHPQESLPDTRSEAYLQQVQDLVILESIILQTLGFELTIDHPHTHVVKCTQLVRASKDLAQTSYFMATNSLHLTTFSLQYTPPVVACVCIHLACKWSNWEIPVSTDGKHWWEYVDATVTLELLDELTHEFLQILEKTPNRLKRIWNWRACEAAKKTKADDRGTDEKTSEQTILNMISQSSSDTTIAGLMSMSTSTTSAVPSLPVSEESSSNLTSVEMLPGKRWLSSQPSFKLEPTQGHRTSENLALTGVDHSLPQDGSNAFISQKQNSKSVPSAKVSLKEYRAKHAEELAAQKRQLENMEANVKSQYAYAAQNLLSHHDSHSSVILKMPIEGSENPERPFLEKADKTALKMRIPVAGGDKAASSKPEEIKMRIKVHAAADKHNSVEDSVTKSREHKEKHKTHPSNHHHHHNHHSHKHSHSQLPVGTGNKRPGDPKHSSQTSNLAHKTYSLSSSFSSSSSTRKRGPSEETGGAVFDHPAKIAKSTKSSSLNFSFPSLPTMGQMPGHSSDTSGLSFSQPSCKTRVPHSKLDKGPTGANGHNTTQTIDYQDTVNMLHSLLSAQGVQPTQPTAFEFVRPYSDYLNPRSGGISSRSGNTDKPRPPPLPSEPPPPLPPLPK
CDK9/cyclin T1, sequence (P50750 whole entry): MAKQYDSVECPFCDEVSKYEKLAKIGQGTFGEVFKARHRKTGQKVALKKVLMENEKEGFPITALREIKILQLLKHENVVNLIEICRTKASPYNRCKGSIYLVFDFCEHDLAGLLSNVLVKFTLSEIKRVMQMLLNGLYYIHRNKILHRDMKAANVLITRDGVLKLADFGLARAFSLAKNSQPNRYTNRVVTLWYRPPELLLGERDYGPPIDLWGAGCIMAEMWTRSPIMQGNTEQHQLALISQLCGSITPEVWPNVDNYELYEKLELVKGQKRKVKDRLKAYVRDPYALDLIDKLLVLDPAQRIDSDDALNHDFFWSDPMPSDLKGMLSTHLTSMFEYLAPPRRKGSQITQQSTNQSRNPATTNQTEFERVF

`O=C(NC1CCN(C2CCOC2)CC1)c1ccc2cc1OCCCCCCOc1cc(ccc1F)-c1ncnc(n1)N2` (stereo not given) returned a solubility at 2 h in series [1] of 27 µg/mL (≈ 46.8 µM). For the same compound, the IC50 was determined as 286 nM on CDK2/Cyclin A2, 6.1 nM on CDK9/cyclin T1, 110 nM in the series on NCI-H1975 [2] and 350 nM in [3].
With `CC(C)N1CCC(NC(=O)c2ccc3cc2OCCCCCCOc2cc(ccc2F)-c2nc(ncc2F)N3)CC1`, the half-inhibitory concentration (IC50) in series [4] is 360 nM; against CDK2/Cyclin A2 it was 67 nM; at CDK9/cyclin T1, 2.3 nM; in the series on NCI-H1975 [2] it was 370 nM. The half-life stood at 8.6 min in series [5] and 161 min in series [6].
With `O=C(NCCN1CCCC1)c1ccc2cc1OCCCCCCOc1cc(ccc1F)-c1nc(ncc1F)N2`, the concentration for half-maximal inhibition (IC50) was determined as 100 nM in series [4]; 18.3 nM on CDK2/Cyclin A2; 1.7 nM on CDK9/cyclin T1; 290 nM in the series on NCI-H1975 [2]; 140 nM in series [3]. Further, the half-life was 36.7 min in series [5] and 37.7 min in series [6].
For `O=C(NCCN1CCOCC1)c1ccc2cc1OCCCCCCOc1cc(ccc1F)-c1nc(ncc1F)N2`, the concentration in solution in series [1] (solubility at 2 h) was 17 µg/mL (≈ 30.7 µM). The half-life in [5] was found to be 6.8 min; in series [6], 10.7 min. In addition, the IC50 is 180 nM in the series with NCI-H1975 [2] and 240 nM in series [3].
With `COC[C@@H](C)NC(=O)c1ccc2cc1OCCCCCCOc1cc(ccc1F)-c1nc(ncc1F)N2`, the IC50 in series [4] was 220 nM; at CDK2/Cyclin A2 it was greater than 500 nM; against CDK9/cyclin T1, 2.5 nM; in the series with NCI-H1975 [2], 300 nM; in [3], 280 nM. The half-life in [5] worked out at 123 min; in series [6] it was 11.3 min.
Turning to `O=C(NC1CCN(C2CCOC2)CC1)c1ccc2cc1OCCCCCCOc1cncc(c1)-c1nc(ncc1F)N2` (stereo not given), in series [1], the solubility at 2 h came to 58 µg/mL (≈ 101 µM). The IC50 came to 18.1 nM against CDK2/Cyclin A2, 1.1 nM at CDK9/cyclin T1, 60 nM in the series on NCI-H1975 [2] and 40 nM in series [3].
Take `Cc1sc2c(c1C)C(c1ccc(Cl)cc1)=N[C@@H](CC(=O)OC(C)(C)C)c1nnc(C)n1-2`: the IC50 in series [4] came out at 2290 nM; in the series with HCC827 it was 9740 nM; with NCI-H1975 [2], 3970 nM; in series [3], 8910 nM. Besides, the inhibition entry (in the series on NCI-H1975 [7]; in [9]) was “inactive” throughout. Also, the Activity entry in series [8] and in [10] was “Non-toxic” in each case.
With `O=C(NC1CCN(C2CCOC2)CC1)c1ccc2cc1OCCCCCCOc1cc(ccc1F)-c1nc(ncc1F)N2` (stereo not given), the IC50 is 110 nM in series [4]; 150 nM against CDK2/Cyclin A2; 1 nM on CDK9/cyclin T1; 380 nM with NCI-H1975 [2]; 300 nM in series [3]. Further, the half-life in [5] turned out to be 25.2 min; in [6], 55 min.
With `CC(=O)N1CCC(NC(=O)c2ccc3cc2OCCCCCCOc2cncc(c2)-c2nc(ncc2F)N3)CC1`, the IC50 at CDK2/Cyclin A2 is 20.6 nM; against CDK9/cyclin T1, 1 nM; in series [3], 40 nM.
For the compound `CN1CCC(NC(=O)c2ccc3cc2OCCCCCCOc2cc(ccc2F)-c2nc(ncc2F)N3)CC1`, the half-life in series [5] was 42.5 min; in [6] it was 66.6 min.
Turning to `O=C(NC1CCN(C2CCOC2)CC1)c1ccc2cc1OCCCCCCn1cc(cn1)-c1nc(ncc1F)N2` (stereo not given), the solubility at 2 h in series [1] was determined as 35 µg/mL (≈ 63.7 µM). The IC50 was found to be 14.2 nM on CDK2/Cyclin A2, 1.3 nM against CDK9/cyclin T1, 90 nM in the series on NCI-H1975 [2] and 80 nM in [3].
In the case of `O=C(NCCN1CCOCC1)c1ccc2cc1OCCCCCCOc1cncc(c1)-c1nc(ncc1F)N2`, the concentration in solution in [1] (solubility at 2 h) was 39 µg/mL (≈ 72.7 µM). For the same compound, the results for the IC50 against CDK2/Cyclin A2, on CDK9/cyclin T1 and with NCI-H1975 [2] were 22.2 nM, 1.5 nM and 70 nM, respectively.
With `CN1CCN(CCNC(=O)c2ccc3cc2OCCCCCCOc2cc(ccc2F)-c2nc(ncc2F)N3)CC1`, the values for the half-life in [5] and in series [6] were 9.5 min and 13.2 min, respectively.
On to `O=C(NC1CCN(C2CC2)CC1)c1ccc2cc1OCCCCCCn1cc(cn1)-c1nc(ncc1F)N2`, for which the IC50 turned out to be 11.4 nM on CDK2/Cyclin A2 and 1 nM against CDK9/cyclin T1.
Taken in the same sequence, the figures for `O=C(NC1CCN(C2CC2)CC1)c1ccc2cc1OCCCCCCOc1cncc(c1)-c1nc(ncc1F)N2` were 28.3 nM and 1.4 nM.
Take `O=C(NC1CCN(C2CCOCC2)CC1)c1ccc2cc1OCCCCCCOc1cc(ccc1F)-c1nc(ncc1F)N2`: the half-life in series [6] amounted to 301 min.
In the case of `CN1CCC(CNC(=O)c2ccc3cc2OCCCCCCOc2cc(ccc2F)-c2nc(ncc2F)N3)CC1`, the IC50 in series [4] turned out to be 250 nM; against CDK2/Cyclin A2, 38.9 nM; against CDK9/cyclin T1, 3.1 nM. For the same compound, the half-life in series [5] was 12.4 min; in [6], 112 min.
Take `COc1cc(F)ccc1-c1cc(Nc2cc(CS(C)(=N)=O)ccn2)ncc1F` (stereo not given) [ENITOCICLIB]: in [11], the viability at 0.5 µM was found to be 76.9%. Also, the 50% inhibitory concentration (IC50) in [4] stood at 120 nM; with NCI-H596, 90 nM; in the series on PC-9 it was 120 nM; in the series on 16HBE14o- it was 410 nM; with HCC827, 130 nM; with NCI-H1975 [2], 140 nM. In addition, the IC50 (in [3]; with NCI-H1299) was 130 nM in each case. Moreover, the Activity is 1.26% in [12], 10.1% in series [13] and 11.8% in series [14].
As for `O=C(NC1CCN(C2CC2)CC1)c1ccc2cc1OCCCCCCOc1cc(ccc1F)-c1nc(ncc1F)N2`, the IC50 in [4] is 230 nM; against CDK2/Cyclin A2 it was 370 nM; at CDK9/cyclin T1, 3.4 nM; in the series on NCI-H1975 [2], 320 nM; in [3], 210 nM. For the same compound, the half-life turned out to be 64.7 min in series [5] and 21.4 min in [6].
For `CCN1CCC(NC(=O)c2ccc3cc2OCCCCCCOc2cc(ccc2F)-c2nc(ncc2F)N3)CC1`, the 50% inhibitory concentration (IC50) in [4] was 280 nM; against CDK2/Cyclin A2, 68.8 nM; on CDK9/cyclin T1 it was 2.3 nM; in the series with NCI-H1975 [2], 280 nM. Also, the results for the half-life in [5] and in [6] were 5.4 min and 257 min, respectively.
Consider `O=C(CN1CCOCC1)NCc1ccc2cc1OCCCCCCOc1cc(ccc1F)-c1nc(ncc1F)N2`, for which the solubility at 2 h in series [1] amounted to 20 µg/mL (≈ 36.1 µM). Also, the IC50 against CDK2/Cyclin A2 turned out to be 200 nM; on CDK9/cyclin T1 it was 5.13 nM; in the series on NCI-H1975 [2], 590 nM.

The values above are taken from ChEMBL document CHEMBL6153135, “Rational Design of a Potent, Selective, and Metabolically Stable CDK9 Inhibitor to Counteract Osimertinib Resistance through Mcl-1 Suppression and Enhanced BRD4 Co-Targeting” (J Med Chem, 2025).
